Results: patent publication US11311483B2, “Curcumin solubilisate” (AQUANOVA AG, priority 2012, dated 2022)

Experiment: human study: plasma curcumin after a single oral dose of 500 mg curcumin
Assay type: in vivo
Conditions: 24 healthy persons, read-out: curcumin concentration in blood plasma
Description: The solubilisate according to the invention is further characterized in that the total curcuminoid concentration in human blood plasma, measured one hour after oral administration of 500 mg curcumin in the form of the solubilisate, is approximately 500 ng curcuminoid per ml plasma±100 ng curcuminoid per ml plasma. In contrast, when native curcumin is taken orally in powdered form, only approximately 1.3 ng curcuminoid per ml plasma is achieved after one hour.
The human study on which these values are based was conducted on 24 healthy persons between 19 and 29 years of age, who received a single oral dose of 500 mg native curcumin or curcumin in the form of the solubilisate according to the invention. Blood samples were withdrawn at various times over a period of 24 hours after the curcumin was taken. To minimize the possible concurrent influence of digested food, the test subjects were served standardized meals. One hour after taking the curcumin in native form, less than 1 nmol/l plasma was measured; 8 hours after administration, 2.4 nmol/l was measured; and 24 hours after administration, 2.4 nmol/l was measured. In contrast, for curcumin from the solubilisate according to the invention, one hour after administration, 1,964 nmol/l was measured in the blood plasma; 8 hours after administration, 307.1 nmol/l was measured; and 24 hours after administration, 67.7 nmol/l was measured. A solubilisate containing […] curcumin was used (the commercial product “6% NovaSOL Curcumin” of the applicant).

concentration at 8 h (8 hours after single oral dose of 500 mg): 2.4 nM
concentration at 24 h (24 hours after single oral dose of 500 mg): 2.4 nM
concentration at 1 h (one hour after single oral dose of 500 mg): < 1 nM
SMILES: COc1cc(/C=C/C(=O)CC(=O)/C=C/c2ccc(O)c(OC)c2)ccc1O [native curcumin, Curcumin]
